According to US9382426B2, “Water-insoluble coloring compound, ink, thermal transfer recording sheet, and color filter resist composition” (CANON KABUSHIKI KAISHA, priority 2012, dated 2016):

Tests used:
Type in all cases: physicochemical
[1] = Light resistance evaluation of compound: ink image samples on paper, xenon tester; set-up: key to Light resistance ΔE (color difference): ΔE = Euclidean distance of L*a*b* before vs after exposure; conditions: ink image sample on paper; xenon tester 10 hours, 0.39 W/m^2 at 340 nm, 40° C., relative humidity 60%
Method: Ink (1) of the present invention was prepared by mixing 5 parts of Compound (1) as the water-insoluble coloring compound of the present invention, 350 parts of toluene, 350 parts of ethyl acetate, and 300 parts of 2-butanone.
Inks (1), (2), (4), (8), (13), (15), (23), (28), (29), and (30) and Comparative Inks (1) and (2) were each applied onto paper for contrast ratio measurement by bar coating (Bar No. 10) and were air-dried overnight to produce image samples. Chromaticity values (L*, a*, b*) in the L*a*b* color system of each image sample were measured with a reflection densitometer SpectroLino (manufactured by Gretag Macbeth AG).
(§1) Each of the image samples produced in the chromaticity measurement was charged in a xenon tester (Atlas Ci4000, manufactured by Suga Test Instruments Co., Ltd.) and was subjected to exposure conditions (irradiance: 0.39 W/m^2 at 340 nm, temperature: 40° C., relative humidity: 60%) for 10 hours. The reflection densities of printed matters were measured before and after the test. The color difference (ΔE) was calculated from the initial chromaticity values a0*, b0*, L0* and the chromaticity values a*, b*, L after the exposure by the following expression: ΔE=√{square root over ((a*−a0*)^2+(b*−b0*)^2+(L*−L0*)^2)} [Math. 1] The evaluation criteria are as follows: • A: ΔE<3.50 • B: 3.50≦ΔE<5.00 • C: 5.00≦ΔE

[2] = Evaluation of light resistance of color filters, xenon tester; conditions: color filter containing the compound; xenon tester 50 hours, 0.39 W/m^2 at 340 nm, 40° C., relative humidity 60%
Method: Ink (11) of the present invention was prepared by mixing 12 parts of Compound (1) as the water-insoluble coloring compound of the present invention and 120 parts of cyclohexanone and dispersing the mixture with an attritor (manufactured by Mitsui Mining Co., Ltd.) for 1 hour.
Twenty-two parts of Ink (11) was slowly added to a solution of 6.7 parts of an acrylic copolymer composition (weight average molecular weight Mw: 10000) composed of, as a monomer ratio, 40% by mass of n-butyl methacrylate, 30% by mass of acrylic acid, and 30% by mass of hydroxyethyl methacrylate, 1.3 parts of dipentaerythritol pentaacrylate, and 0.4 parts of 2-benzyl-2-dimethylamino-1-(4-morpholinophenyl)-butanone (photopolymerization initiator) in 96 parts of cyclohexanone, followed by stirring at room temperature for 3 hours. The reaction solution was filtered through a filter of 1.5 μm pore size to yield color filter yellow resist composition (1) of the present invention.
Color filter yellow resist composition (1) was spin-coated on a glass substrate and was then dried at 90° C. for 3 min, and the entire surface was then exposed to light and post-cured at 180° C. to produce color filter (1).
as §1, with “the resulting color filters and” for “the image samples produced in”, “the thermal transfer recording sheets” for “the chromaticity measurement”, “for 50” for “for 10”, “b*, L*” for “b*, L”, “[Math. 2]” for “[Math. 1]”

[3] = Evaluation of light resistance of thermal transfer recording sheets, xenon tester; conditions: thermal transfer recording sheet containing the compound; xenon tester 50 hours, 0.39 W/m^2 at 340 nm, 40° C., relative humidity 60%
Method: Ink (14) of the present invention was prepared by gradually adding 5 parts of a polyvinyl butyral resin (Denka 3000-K, manufactured by Denki Kagaku Kogyo K.K.) to a solution of 13.5 parts of Compound (4), as the water-insoluble coloring compound of the present invention, in a mixture of 45 parts of methyl ethyl ketone and 45 parts of toluene with stirring.
Ink (14) was applied onto a polyethylene terephthalate film (Lumirror, manufactured by Toray Industries, Inc.) having a thickness of 4.5 μm so as to have a dried thickness of 1 μm and was dried to produce thermal transfer recording sheet (4).
as §1, with “the resulting color filters and” for “the image samples produced in”, “the thermal transfer recording sheets” for “the chromaticity measurement”, “for 50” for “for 10”, “b*, L*” for “b*, L”, “[Math. 2]” for “[Math. 1]”

| Structure (SMILES) | Light resistance ΔE (color difference) [1] | Light resistance ΔE, evaluation grade [1] | Light resistance ΔE (color difference) [2] | Light resistance ΔE, evaluation grade [2] | Light resistance ΔE (color difference) [3] | Light resistance ΔE, evaluation grade [3] |
| --- | --- | --- | --- | --- | --- | --- |
| Cc1c(/N=N/c2ccccc2)c(O)n(N)c(=O)c1C#N [Comparative Compound (1), reference compound] | 10.6 | C (C: 5.00≦ΔE) | 12.8 | C (C: 5.00≦ΔE) | 15.1 | C (C: 5.00≦ΔE) |
| CCCCC(CC)CN(CC(CC)CCCC)C(=O)c1ccccc1/N=N/c1c(C)c(C#N)c(=O)n(N)c1O (stereo not drawn) [Compound (1)] | 3.64 | B (B: 3.50≦ΔE<5.00) | 2.99 | A (A: ΔE<3.50) | – | – |
| CCCCC(CC)CN(CC(CC)CCCC)C(=O)c1cccc(/N=N/c2c(C)c(C#N)c(=O)n(N)c2O)c1 (stereo not drawn) [Compound (4)] | 1.70 | A (A: ΔE<3.50) | – | – | 2.76 | A (A: ΔE<3.50) |
| CCCCC(CC)CN(CC(CC)CCCC)C(=O)c1ccc(/N=N/c2c(-c3ccccc3)c(C#N)c(=O)n(NC(=O)c3ccccc3)c2O)cc1 (stereo not drawn) [Compound (8)] | 2.81 | A (A: ΔE<3.50) | 2.68 | A (A: ΔE<3.50) | – | – |
| CCCCC(CC)CN(CC(CC)CCCC)C(=O)c1cccc(/N=N/c2c(C)c(C#N)c(=O)n(N(C)C)c2O)c1 (stereo not drawn) [Compound (13)] | 3.98 | B (B: 3.50≦ΔE<5.00) | – | – | 3.37 | A (A: ΔE<3.50) |
| CCCCC(CC)CN(CC(CC)CCCC)C(=O)c1cccc(/N=N/c2c(C)c(C#N)c(=O)n(NC(=O)C(CC)CCCC)c2O)c1 (stereo not drawn) [Compound (15)] | 4.32 | B (B: 3.50≦ΔE<5.00) | 4.21 | B (B: 3.50≦ΔE<5.00) | – | – |
| CCCCC(CC)CN(CC(CC)CCCC)S(=O)(=O)c1ccc(/N=N/c2c(C)c(C#N)c(=O)n(N)c2O)cc1 (stereo not drawn) [Compound (23)] | 2.37 | A (A: ΔE<3.50) | – | – | 2.54 | A (A: ΔE<3.50) |
| CCCCC(CC)CN(CC(CC)CCCC)C(=O)c1ccc(/N=N/c2c(C)c(C#N)c(=O)n(N3CCCCC3)c2O)cc1 (stereo not drawn) [Compound (28)] | 1.64 | A (A: ΔE<3.50) | – | – | 2.32 | A (A: ΔE<3.50) |
| CCCCC(CC)CN(CC(CC)CCCC)S(=O)(=O)c1ccc(/N=N/c2c(C)c(C#N)c(=O)n(N(C)C(=O)C(C)(C)C)c2O)cc1 (stereo not drawn) [Compound (29)] | 3.77 | B (B: 3.50≦ΔE<5.00) | – | – | 2.56 | A (A: ΔE<3.50) |
| CCCCC(CC)CN(CC(CC)CCCC)C(=O)c1ccc(/N=N/c2c(C)c(C#N)c(=O)n(N(CCCC)CCCC)c2O)cc1 (stereo not drawn) [Compound (30)] | 2.44 | A (A: ΔE<3.50) | – | – | 4.89 | B (B: 3.50≦ΔE<5.00) |
